# From paper PMC6366416, “Synthesis and in vitro anticancer activity of certain novel 1-(2-methyl-6-arylpyridin-3-yl)-3-phenylureas as apoptosis-inducing agents” (Journal of Enzyme Inhibition and Medicinal Chemistry, 2019)
# Columns and labels:
# Experiment in all cases: NCI one-dose SRB growth inhibition
# Format in all cases: cell-based
# 786-0 = settings: Homo sapiens, Renal Cancer, 48 h, read-out: GI% 786-0
# Experimental: (§1) The antitumor assay was performed according to the protocol of the Drug Evaluation Branch, NCI, Bethesda[24–26]. A 48 h drug exposure protocol was adopted, and sulforhodamine B (SRB) assay[27] was utilized to assess the cell growth and viability, as reported earlier[17]^,[28].
# (§2) The structures of all the newly synthesized pyridines 5a–l were submitted to the National Cancer Institute (NCI) Developmental Therapeutic Program (www.dtp.nci.nih.gov). […] Nine different types of cancer were tested in this assay: colon, ovarian, prostate, leukemia, melanoma, CNS, renal, breast and lung cancers. A 48 h drug exposure protocol was adopted, and sulforhodamine B (SRB) assay[27] was utilized to assess the cell growth and viability.
# A498 = settings: Homo sapiens, Renal Cancer, 48 h, read-out: GI% A498
# Experimental: as §1, §2
# COLO 205 = settings: Homo sapiens, Colon Cancer, 48 h, read-out: GI% COLO 205
# Experimental: as §1, §2
# EKVX = settings: Homo sapiens, Non-Small Cell Lung Cancer, 48 h, read-out: GI% EKVX
# Experimental: as §1, §2
# HCC-2998 = settings: Homo sapiens, Colon Cancer, 48 h, read-out: GI% HCC-2998
# Experimental: as §1, §2
# HCT-116 = settings: Homo sapiens, HCT-116, 48 h, Colon Cancer, read-out: GI% HCT-116
# Experimental: as §1, §2
# HCT-15 = settings: Homo sapiens, HCT-15, 48 h, Colon Cancer, read-out: GI% HCT-15
# Experimental: as §1, §2
# HOP-62 = settings: Homo sapiens, Non-Small Cell Lung Cancer, 48 h, read-out: GI% HOP-62
# Experimental: as §1, §2
# HOP-92 = settings: Homo sapiens, Non-Small Cell Lung Cancer, 48 h, read-out: GI% HOP-92
# Experimental: as §1, §2
# HS 578T = settings: Homo sapiens, Breast Cancer, 48 h, read-out: GI% HS 578T
# Experimental: as §1, §2
# HT29 = settings: Homo sapiens, HT-29, 48 h, Colon Cancer, read-out: GI% HT29
# Experimental: as §1, §2
# KM12 = settings: Homo sapiens, Colon Cancer, 48 h, read-out: GI% KM12
# Experimental: as §1, §2
# LOX IMVI = settings: Homo sapiens, Melanoma, 48 h, read-out: GI% LOX IMVI
# Experimental: as §1, §2
# M14 = settings: Homo sapiens, M14, 48 h, Melanoma, read-out: GI% M14
# Experimental: as §1, §2
# OVCAR-4 = settings: Homo sapiens, Ovarian Cancer, 48 h, read-out: GI% OVCAR-4
# Experimental: as §1, §2
# OVCAR-5 = settings: Homo sapiens, Ovarian Cancer, 48 h, read-out: GI% OVCAR-5
# Experimental: as §1, §2
# OVCAR-8 = settings: Homo sapiens, Ovarian Cancer, 48 h, read-out: GI% OVCAR-8
# Experimental: as §1, §2
# PC-3 = settings: Homo sapiens, PC-3, 48 h, Prostate, read-out: GI% PC-3
# Experimental: as §1, §2
# RPMI-8226 = settings: Homo sapiens, RPMI-8226, 48 h, Leukemia, read-out: GI% RPMI-8226
# Experimental: as §1, §2
# SF-268 = settings: Homo sapiens, CNS Cancer, 48 h, read-out: GI% SF-268
# Experimental: as §1, §2
# SF-539 = settings: Homo sapiens, CNS Cancer, 48 h, read-out: GI% SF-539
# Experimental: as §1, §2
# SK-MEL-28 = settings: Homo sapiens, Melanoma, 48 h, read-out: GI% SK-MEL-28
# Experimental: as §1, §2
# SK-MEL-2 = settings: Homo sapiens, Melanoma, 48 h, read-out: GI% SK-MEL-2
# Experimental: as §1, §2
# SK-MEL-5 = settings: Homo sapiens, Melanoma, 48 h, read-out: GI% SK-MEL-5
# Experimental: as §1, §2
# SK-OV-3 = settings: Homo sapiens, Ovarian Cancer, 48 h, read-out: GI% SK-OV-3
# Experimental: as §1, §2
# SN12C = settings: Homo sapiens, Renal Cancer, 48 h, read-out: GI% SN12C
# Experimental: as §1, §2
# SNB-19 = settings: Homo sapiens, CNS Cancer, 48 h, read-out: GI% SNB-19
# Experimental: as §1, §2
# SNB-75 = settings: Homo sapiens, CNS Cancer, 48 h, read-out: GI% SNB-75
# Experimental: as §1, §2
# SR = settings: Homo sapiens, 48 h, Leukemia, read-out: GI% SR
# Experimental: as §1, §2
# T-47D = settings: Homo sapiens, T47D, 48 h, Breast Cancer, read-out: GI% T-47D
# Experimental: as §1, §2
# U251 = settings: Homo sapiens, U-251, CNS Cancer, 48 h, read-out: GI% U251
# Experimental: as §1, §2
# UACC-257 = settings: Homo sapiens, UACC-257, read-out: GI% UACC-257, Melanoma, 48 h
# Experimental: as §1, §2
# UACC-62 = settings: Homo sapiens, UACC-62, 48 h, Melanoma, read-out: GI% UACC-62
# Experimental: as §1, §2
# UO-31 = settings: Homo sapiens, Renal Cancer, 48 h, read-out: GI% UO-31
# Experimental: as §1, §2
SMILES,inhibition at 10 µM (786-0) [%],inhibition at 10 µM (A498) [%],inhibition at 10 µM (COLO 205) [%],inhibition at 10 µM (EKVX) [%],inhibition at 10 µM (HCC-2998) [%],inhibition at 10 µM (HCT-116) [%],inhibition at 10 µM (HCT-15) [%],inhibition at 10 µM (HOP-62) [%],inhibition at 10 µM (HOP-92) [%],inhibition at 10 µM (HS 578T) [%],inhibition at 10 µM (HT29) [%],inhibition at 10 µM (KM12) [%],inhibition at 10 µM (LOX IMVI) [%],inhibition at 10 µM (M14) [%],inhibition at 10 µM (OVCAR-4) [%],inhibition at 10 µM (OVCAR-5) [%],inhibition at 10 µM (OVCAR-8) [%],inhibition at 10 µM (PC-3) [%],inhibition at 10 µM (RPMI-8226) [%],inhibition at 10 µM (SF-268) [%],also measured
"Cc1nc(-c2cccs2)ccc1NC(=O)Nc1ccc(Cl)cc1 [Compound 5i, 1-(4-Chlorophenyl)-3-(2-methyl-6-(thiophen-2-yl)pyridin-3-yl)urea]",< 10,< 10,< 10,< 10,< 10,< 10,< 10,< 10,< 10,< 10,< 10,< 10,< 10,< 10,< 10,< 10,< 10,< 10,< 10,< 10,inhibition at 10 µM (SF-539): < 10%; inhibition at 10 µM (SK-MEL-28): < 10%; inhibition at 10 µM (SK-MEL-2): < 10%; inhibition at 10 µM (SK-MEL-5): < 10%; inhibition at 10 µM (SK-OV-3): < 10%; inhibition at 10 µM (SN12C): < 10%; inhibition at 10 µM (SNB-19): < 10%; inhibition at 10 µM (SNB-75): < 10%; inhibition at 10 µM (SR): < 10%; inhibition at 10 µM (T-47D): 13%; inhibition at 10 µM (U251): < 10%; inhibition at 10 µM (UACC-257): 23%; inhibition at 10 µM (UACC-62): 19%; inhibition at 10 µM (UO-31): < 10%
"Cc1nc(-c2ccc(Cl)cc2)ccc1NC(=O)Nc1cccc(C(F)(F)F)c1 [Compound 5e, 1-(6-(4-Chlorophenyl)-2-methylpyridin-3-yl)-3-(3-(trifluoromethyl)phenyl)urea]",< 10,< 10,< 10,< 10,< 10,26,18,< 10,< 10,< 10,25,< 10,< 10,< 10,< 10,< 10,< 10,20,15,< 10,inhibition at 10 µM (SF-539): < 10%; inhibition at 10 µM (SK-MEL-28): < 10%; inhibition at 10 µM (SK-MEL-2): < 10%; inhibition at 10 µM (SK-MEL-5): < 10%; inhibition at 10 µM (SK-OV-3): < 10%; inhibition at 10 µM (SN12C): < 10%; inhibition at 10 µM (SNB-19): < 10%; inhibition at 10 µM (SNB-75): < 10%; inhibition at 10 µM (SR): 41%; inhibition at 10 µM (T-47D): 13%; inhibition at 10 µM (U251): 24%; inhibition at 10 µM (UACC-257): < 10%; inhibition at 10 µM (UACC-62): < 10%; inhibition at 10 µM (UO-31): < 10%
"COc1ccc(NC(=O)Nc2ccc(-c3ccc(Cl)cc3)nc2C)cc1 [Compound 5f, 1-(6-(4-Chlorophenyl)-2-methylpyridin-3-yl)-3-(4-methoxyphenyl) urea]",< 10,< 10,< 10,< 10,< 10,21,< 10,< 10,< 10,< 10,23,< 10,21,38,< 10,< 10,< 10,< 10,14,< 10,inhibition at 10 µM (SF-539): < 10%; inhibition at 10 µM (SK-MEL-28): 13%; inhibition at 10 µM (SK-MEL-2): < 10%; inhibition at 10 µM (SK-MEL-5): 38%; inhibition at 10 µM (SK-OV-3): < 10%; inhibition at 10 µM (SN12C): < 10%; inhibition at 10 µM (SNB-19): < 10%; inhibition at 10 µM (SNB-75): < 10%; inhibition at 10 µM (SR): 28%; inhibition at 10 µM (T-47D): < 10%; inhibition at 10 µM (U251): < 10%; inhibition at 10 µM (UACC-257): 26%; inhibition at 10 µM (UACC-62): 27%; inhibition at 10 µM (UO-31): < 10%
"Cc1nc(-c2ccc(F)cc2)ccc1NC(=O)Nc1cccc(C(F)(F)F)c1 [Compound 5a, 1-(6-(4-Fluorophenyl)-2-methylpyridin-3-yl)-3-(3-(trifluoromethyl)phenyl)urea]",< 10,< 10,< 10,17,< 10,> 40,> 40,31,< 10,< 10,> 40,37,37,> 40,30,< 10,29,> 40,> 40,< 10,inhibition at 10 µM (SF-539): < 10%; inhibition at 10 µM (SK-MEL-28): 20%; inhibition at 10 µM (SK-MEL-2): < 10%; inhibition at 10 µM (SK-MEL-5): 32%; inhibition at 10 µM (SK-OV-3): 13%; inhibition at 10 µM (SN12C): 26%; inhibition at 10 µM (SNB-19): 15%; inhibition at 10 µM (SNB-75): < 10%; inhibition at 10 µM (SR): > 40%; inhibition at 10 µM (T-47D): > 40%; inhibition at 10 µM (U251): 31%; inhibition at 10 µM (UACC-257): 38%; inhibition at 10 µM (UACC-62): > 40%; inhibition at 10 µM (UO-31): 15%
